Test results published in the NIST ThermoML archive (doi:10.1016/j.jct.2006.05.008).

Assay: molar heat capacity at constant pressure; wn = mass fraction of the nth substance listed
Conditions: Small (less than 1 g) adiabatic calorimetry

CCCCn1cc[n+](C)c1.[Br-] [1-butyl-3-methylimidazolium bromide] + O
Crystal
Conditions	molar heat capacity at constant pressure [J/K/mol]
80.69 K, w2 = 0.00482	98.89
80.93 K, w2 = 0.0051	98.9
81.42 K, w2 = 0.0169	89.1
83.2 K, w2 = 0.00482	100.65
83.26 K, w2 = 0.0051	100.45
83.41 K, w2 = 0.0169	90.19
84.28 K, w2 = 0.0495	71.58
85.41 K, w2 = 0.0169	91.5
85.62 K, w2 = 0.0051	101.93
85.71 K, w2 = 0.00482	102.22
86.99 K, w2 = 0.0495	72.97
87.41 K, w2 = 0.0169	92.8
87.99 K, w2 = 0.0051	103.55
88.22 K, w2 = 0.00482	103.95
89.41 K, w2 = 0.0169	94.12
89.64 K, w2 = 0.0495	74.29
90.39 K, w2 = 0.0051	105.19
90.73 K, w2 = 0.00482	105.63
91.42 K, w2 = 0.0169	95.27
92.3 K, w2 = 0.0495	75.61
92.8 K, w2 = 0.0051	106.81
93.24 K, w2 = 0.00482	107.29
93.42 K, w2 = 0.0169	96.43
94.99 K, w2 = 0.0495	76.9
95.24 K, w2 = 0.0051	108.32
95.42 K, w2 = 0.0169	97.66
95.77 K, w2 = 0.00482	108.86
97.43 K, w2 = 0.0169	98.68
97.68 K, w2 = 0.0051	109.8
97.69 K, w2 = 0.0495	78.16
98.29 K, w2 = 0.00482	110.42
99.44 K, w2 = 0.0169	99.85
100.14 K, w2 = 0.0051	111.32
100.41 K, w2 = 0.0495	79.41
100.82 K, w2 = 0.00482	111.94
101.45 K, w2 = 0.0169	101.05
102.61 K, w2 = 0.0051	112.8
103.15 K, w2 = 0.0495	80.66
103.35 K, w2 = 0.00482	113.4
103.46 K, w2 = 0.0169	102.17
105.09 K, w2 = 0.0051	114.19
105.47 K, w2 = 0.0169	103.12
105.88 K, w2 = 0.00482	114.89
105.9 K, w2 = 0.0495	81.82
107.49 K, w2 = 0.0169	104.29
107.59 K, w2 = 0.0051	115.72
108.42 K, w2 = 0.00482	116.33
108.67 K, w2 = 0.0495	83.08
109.51 K, w2 = 0.0169	105.26
110.1 K, w2 = 0.0051	117.14
110.97 K, w2 = 0.00482	117.75
111.45 K, w2 = 0.0495	84.27
111.54 K, w2 = 0.0169	106.2
112.61 K, w2 = 0.0051	118.54
113.51 K, w2 = 0.00482	119.17
113.57 K, w2 = 0.0169	107.35
114.24 K, w2 = 0.0495	85.5
115.14 K, w2 = 0.0051	119.96
115.6 K, w2 = 0.0169	108.36
116.06 K, w2 = 0.00482	120.61
117.04 K, w2 = 0.0495	86.65
117.63 K, w2 = 0.0169	109.39
117.68 K, w2 = 0.0051	121.3
118.63 K, w2 = 0.00482	121.93
119.66 K, w2 = 0.0169	110.42
119.84 K, w2 = 0.0495	87.83
120.23 K, w2 = 0.0051	122.75
121.18 K, w2 = 0.00482	123.35
121.69 K, w2 = 0.0169	111.46
122.66 K, w2 = 0.0495	89.01
122.78 K, w2 = 0.0051	124.09
123.73 K, w2 = 0.0169	112.39
123.74 K, w2 = 0.00482	124.71
125.34 K, w2 = 0.0051	125.46
125.48 K, w2 = 0.0495	90.15
125.77 K, w2 = 0.0169	113.34
126.3 K, w2 = 0.00482	126.04
127.81 K, w2 = 0.0169	114.42
127.91 K, w2 = 0.0051	126.77
128.32 K, w2 = 0.0495	91.34
128.86 K, w2 = 0.00482	127.4
129.85 K, w2 = 0.0169	115.33
130.48 K, w2 = 0.0051	128.21
131.16 K, w2 = 0.0495	92.52
131.42 K, w2 = 0.00482	128.75
131.9 K, w2 = 0.0169	116.36
133.06 K, w2 = 0.0051	129.58
133.95 K, w2 = 0.0169	117.4
134 K, w2 = 0.00482	130.13
134 K, w2 = 0.0495	93.65
135.64 K, w2 = 0.0051	131
136 K, w2 = 0.0169	118.35
136.57 K, w2 = 0.00482	131.47
136.85 K, w2 = 0.0495	94.81
138.05 K, w2 = 0.0169	119.43
139.14 K, w2 = 0.00482	132.79
139.19 K, w2 = 0.0051	132.51
139.7 K, w2 = 0.0495	95.99
140.1 K, w2 = 0.0169	120.24
141.87 K, w2 = 0.0051	133.88
142.16 K, w2 = 0.0169	121.29
142.55 K, w2 = 0.0495	97.17
143.39 K, w2 = 0.00482	135
144.23 K, w2 = 0.0169	122.36
144.46 K, w2 = 0.0051	135.42
145.41 K, w2 = 0.0495	98.38
145.73 K, w2 = 0.00482	136.26
146.29 K, w2 = 0.0169	123.43
147.05 K, w2 = 0.0051	136.72
148.27 K, w2 = 0.0495	99.58
148.31 K, w2 = 0.00482	137.61
148.35 K, w2 = 0.0169	124.38
149.65 K, w2 = 0.0051	138.06
150.42 K, w2 = 0.0169	125.3
150.89 K, w2 = 0.00482	138.87
151.13 K, w2 = 0.0495	100.83
152.25 K, w2 = 0.0051	139.46
152.48 K, w2 = 0.0169	126.38

101.3 kPa, Glass, w2 = 0.00482
Conditions	molar heat capacity at constant pressure [J/K/mol]
82.79 K	103.56
85.01 K	105.32
87.51 K	107.36
90.01 K	109.3
92.52 K	111.32
95.02 K	113.23
99.79 K	116.7
102.06 K	118.31
104.58 K	120.07
107.1 K	121.78
109.63 K	123.51
112.16 K	125.21
114.69 K	126.86
117.23 K	128.48
119.76 K	130.09
122.3 K	131.74
124.85 K	133.4
127.39 K	135.01
129.94 K	136.58
132.49 K	138.2
135.04 K	139.78
137.59 K	141.4
140.15 K	142.95
142.71 K	144.57
145.27 K	146.31
147.83 K	147.89
150.39 K	149.45
